IC50 data for 27 molecules are collected here from patent US20230357179A1, “RAF KINASE INHIBITORS AND METHODS OF USE THEREOF” (Deciphera Pharmaceuticals, LLC, priority 2021, published 2023).

SMILES strings stand for the structures.

In one experiment the target is T1, A-Raf kinase (Homo sapiens, UniProt P10398, Y301D/Y302D).
T1 construct: purchased Sigma
As to the kind of experiment: Biochemical assay for A-Raf.1 (coupled pyruvate kinase/lactate dehydrogenase). As to conditions: read-out: ARAF.1 IC50. The procedure, abridged: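 IC50 values came from four-parameter sigmoidal fits of percent inhibition, using rates over the 4 to 5 h window of continuous A340 readings (6 h, 30° C). The coupled PK/LDH system tracked NADH oxidation during 5.55 nM A-Raf activity on 30.1 nM MEK at 1 mM ATP, buffer pH 7.5.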

The target in a further experiment is T2, B-Raf (V600E) kinase (Homo sapiens, UniProt P15056, V600E).
T2 construct: B-Raf (V600E) residues 416-766 with a; GST (N); purchased SignalChem
As to the kind of experiment: Biochemical assay for B-Raf (V600E).1 (coupled pyruvate kinase/lactate dehydrogenase). As to conditions: read-out: BRAF V600E.1 IC50. Summed up: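 IC50 came from four-parameter sigmoidal fits of percent inhibition, using reaction rates over 3-4 h. Continuous A340 reading (6 h, 30 °C) of a pyruvate kinase/lactate dehydrogenase-coupled reaction: B-Raf V600E 0.03 nM, MEK 30.1 nM, ATP 1 mM, Tris pH 7.5, 1% DMSO.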

The next experiment concerns A375 cells. As to the kind of experiment: A375 cell proliferation assay (1), resazurin, 96-well. The format is cell-based. As to conditions: Homo sapiens, A-375, inhibition of cell proliferation. The procedure, abridged:
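Viability was read by resazurin fluorescence at 540 nm excitation and 600 nm emission, using a 440 μM solution added for 5–6 h at the end of culture. IC50 came from the curve fit.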
(In general: Alamar Blue is a resazurin reagent that responds to reducing activity.)

Another experiment has as its system H2405 cells. The experiment is described as follows: H2405 cell proliferation assay (1), resazurin, 96-well. The format is cell-based. As to conditions: Homo sapiens, NCI-H2405, inhibition of cell proliferation. As to the method:
H2405 Cell Proliferation Assay (1)
H2405 cells (catalog #CRL-5944) are obtained from the American Type Culture Collect (ATTC, Manassas, VA). Briefly, cells were grown in RPMI 1640 supplemented with 5% characterized fetal bovine serum (Invitrogen, Carlsbad, CA) and 1% Penicillin/Streptomycin/L-Glutamine at 37° C., 5% CO2, and 95% humidity. Cells are expanded until reaching 70-95% confluency at which point they are subcultured or harvested for assay use. A serial dilution of test compound is dispensed into a 96-well black clear bottom plate in triplicate. Three thousand cells are added per well in 200 μL complete growth medium in the 96-well plate. Plates are incubated for 67-72 hours at 37° C., 5% CO2, and 95% humidity. At the end of the incubation, 40 μL of a 440 μM solution of resazurin (Sigma, St. Louis, MO) in PBS is added to each well of the plate and plates are incubated for an additional 5-6 hours at 37° C., 5% CO2, and 95% humidity. Plates are read on a Synergy2 or equivalent reader (Biotek, Winooski VT) using an excitation of 540 nm and an emission of 600 nm. Data is analyzed using Prism software (GraphPad, San Diego, CA) to calculate IC50 values.

T2 sequence (P15056 416-766 V600E): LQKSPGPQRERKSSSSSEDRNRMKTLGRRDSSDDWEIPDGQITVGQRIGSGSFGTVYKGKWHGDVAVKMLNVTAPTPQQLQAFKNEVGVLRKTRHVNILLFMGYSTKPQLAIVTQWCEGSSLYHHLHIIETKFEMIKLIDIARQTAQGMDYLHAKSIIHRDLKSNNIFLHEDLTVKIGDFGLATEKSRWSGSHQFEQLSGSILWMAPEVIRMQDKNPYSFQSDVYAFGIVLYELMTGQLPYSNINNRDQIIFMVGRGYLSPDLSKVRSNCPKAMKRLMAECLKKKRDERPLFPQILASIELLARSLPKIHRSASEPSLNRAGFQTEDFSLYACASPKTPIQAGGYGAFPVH
T1 sequence (P10398 with tags, fused parts or gaps Y301D/Y302D): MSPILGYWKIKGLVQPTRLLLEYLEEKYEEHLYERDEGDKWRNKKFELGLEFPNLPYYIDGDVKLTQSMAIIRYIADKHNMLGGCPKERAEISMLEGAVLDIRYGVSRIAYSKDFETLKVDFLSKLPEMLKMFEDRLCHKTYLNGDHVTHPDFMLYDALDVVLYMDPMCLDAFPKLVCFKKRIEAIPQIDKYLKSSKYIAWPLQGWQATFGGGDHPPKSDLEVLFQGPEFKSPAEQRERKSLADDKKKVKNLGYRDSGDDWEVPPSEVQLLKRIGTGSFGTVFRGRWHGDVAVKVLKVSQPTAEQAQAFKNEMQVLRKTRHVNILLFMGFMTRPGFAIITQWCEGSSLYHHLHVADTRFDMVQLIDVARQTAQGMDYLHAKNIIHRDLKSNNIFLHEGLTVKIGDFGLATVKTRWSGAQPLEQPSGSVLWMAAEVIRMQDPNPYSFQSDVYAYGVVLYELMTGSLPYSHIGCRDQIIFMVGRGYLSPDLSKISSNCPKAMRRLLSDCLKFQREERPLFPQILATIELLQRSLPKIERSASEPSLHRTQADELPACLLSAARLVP

For the molecule `Cc1cc(F)c(NC(=O)NCCC(C)(C)F)cc1-c1cccc(-c2cc(NC(=O)C3CC3)ncn2)c1` [Example 127], the IC50 was 0.1 to 0.5 µM on A-Raf kinase, not above 0.1 µM on B-Raf (V600E) kinase, 1 to 10 µM in the experiment with A375 cells and 1 to 10 µM in the experiment on H2405 cells.
`CNC(=O)c1cc(-c2cnnc(-c3cc(NC(=O)NCCC(C)(C)OC)cnc3C)c2)ccn1` [Example 154]: the IC50 was more than 1 µM at A-Raf kinase, not above 0.1 µM on B-Raf (V600E) kinase, 1 to 10 µM in the experiment with A375 cells and 1 to 10 µM with H2405 cells.
As for `Cc1cc(F)c(NC(=O)NC2CC3(COC3)C2)cc1-c1cc(OCCO)nc(-c2ccnc3[nH]ncc23)c1` [Example 101], the IC50 at A-Raf kinase is more than 1 µM; at B-Raf (V600E) kinase, not above 0.1 µM; with A375 cells, 1 to 10 µM; in the experiment on H2405 cells, 1 to 10 µM.
`Cc1ncc(NC(=O)NCCC2(C)CC2)cc1-c1cc(OCCO)nc(-c2ccnc(NC(=O)C3CC3)c2)n1` [Example 133]: the IC50 was 0.5 to 1 µM on A-Raf kinase, not above 0.1 µM at B-Raf (V600E) kinase, 0.5 to 1 µM in the experiment on A375 cells and 0.5 to 1 µM in the experiment on H2405 cells.
Take `COC(=O)Nc1cc(-c2cc(-c3cc(NC(=O)NCCC4COC4)c(F)cc3C)cc(OCCO)n2)ccn1` [Example 155]: the IC50 at A-Raf kinase was more than 1 µM; at B-Raf (V600E) kinase it was not above 0.1 µM; with A375 cells it was 1 to 10 µM; in the experiment on H2405 cells, 1 to 10 µM.
For `COC(=O)Nc1cc(-c2cnnc(-c3cc(NC(=O)NCCC(C)(C)OC)cnc3C)c2)ccn1` [Example 153], the IC50 at A-Raf kinase was more than 1 µM; at B-Raf (V600E) kinase, not above 0.1 µM; in the experiment on A375 cells, 1 to 10 µM; in the experiment on H2405 cells, 1 to 10 µM.
Turning to `Cc1cc(F)c(NC(=O)NCCC2(C)COC2)cc1-c1cc(OCCO)nc(-c2ccnc3[nH]ncc23)c1` [Example 110], the IC50 on A-Raf kinase was more than 1 µM; on B-Raf (V600E) kinase, not above 0.1 µM; in the experiment with A375 cells it was 1 to 10 µM; in the experiment with H2405 cells, 1 to 10 µM.
On to `COC(C)(C)CCNC(=O)Nc1cnc(C)c(-c2cc(-c3ccnc(NC(=O)C4CC4)c3)cnn2)c1` [Example 121], for which the IC50 on A-Raf kinase is more than 1 µM; at B-Raf (V600E) kinase, not above 0.1 µM; with A375 cells it was 1 to 10 µM; with H2405 cells it was 1 to 10 µM.
Consider `COC1(CCNC(=O)Nc2cc(-c3cccc(-c4cc(NC(=O)C5CC5)ncn4)c3)c(C)cc2F)CC1` [Example 104], for which the IC50 on A-Raf kinase is 0.1 to 0.5 µM; on B-Raf (V600E) kinase it was not above 0.1 µM; in the experiment with A375 cells, 1 to 10 µM; with H2405 cells, 0.1 to 0.5 µM.
In the case of `Cc1cc(F)c(NC(=O)NCCC(C)(C)F)cc1-c1cccc(-c2ccnc3[nH]ncc23)c1` [Example 100], the IC50 at A-Raf kinase was more than 1 µM; at B-Raf (V600E) kinase, not above 0.1 µM; in the experiment with A375 cells, 1 to 10 µM; in the experiment on H2405 cells, 1 to 10 µM.
With `COC(=O)Nc1cc(-c2cnnc(-c3cc(NC(=O)NCCC(C)(C)OC)c(F)cc3C)c2)ccn1` [Example 140], the IC50 at A-Raf kinase was more than 1 µM; at B-Raf (V600E) kinase it was not above 0.1 µM; in the experiment on A375 cells, 1 to 10 µM; in the experiment on H2405 cells it was 1 to 10 µM.
In the case of `Cc1ncc(NC(=O)NCCN2CCC2)cc1-c1cc(OCCO)nc(-c2ccnc(NC(=O)C3CC3)c2)c1` [Example 172], the IC50 on A-Raf kinase was more than 1 µM; on B-Raf (V600E) kinase, 0.1 to 0.5 µM; in the experiment with A375 cells it was 1 to 10 µM; in the experiment with H2405 cells it was 1 to 10 µM.
Consider `Cc1cc(F)c(NC(=O)NCCC(C)(C)F)cc1-c1nccc(-c2ccnc(NC(=O)C3CC3)c2)n1` [Example 114], for which the IC50 is 0.1 to 0.5 µM on A-Raf kinase, not above 0.1 µM at B-Raf (V600E) kinase, 1 to 10 µM with A375 cells and 0.5 to 1 µM with H2405 cells.
Consider `Cc1ncc(NC(=O)NCCC(C)(C)F)cc1-c1ccnc(-c2ccnc(NC(=O)C3CC3)c2)n1` [Example 136], for which the IC50 is more than 1 µM on A-Raf kinase, not above 0.1 µM at B-Raf (V600E) kinase, 1 to 10 µM in the experiment on A375 cells and 1 to 10 µM in the experiment with H2405 cells.
As for `COC[C@H]1CCN(C(=O)Nc2cnc(C)c(-c3cc(OCCO)nc(-c4ccnc(NC(=O)OC)c4)c3)c2)C1` [Example 152], the IC50 on A-Raf kinase is more than 1 µM; at B-Raf (V600E) kinase, not above 0.1 µM; in the experiment with A375 cells, 1 to 10 µM; in the experiment with H2405 cells, 1 to 10 µM.
On to `COC(=O)Nc1cc(-c2cc(-c3cc(NC(=O)NCCC(C)(C)OC)c(F)cc3F)ccn2)ccn1` [Example 163], for which the IC50 on A-Raf kinase was more than 1 µM; on B-Raf (V600E) kinase, not above 0.1 µM; in the experiment on A375 cells it was 1 to 10 µM; with H2405 cells, 1 to 10 µM.
Consider `COC(=O)Nc1cc(-c2cc(-c3cc(NC(=O)NCCC(C)(C)C)cnc3C)ccn2)ccn1` [Example 109], for which the IC50 on A-Raf kinase was more than 1 µM; at B-Raf (V600E) kinase, not above 0.1 µM; in the experiment with A375 cells it was 1 to 10 µM; with H2405 cells, 1 to 10 µM.
Turning to `Cc1ncc(NC(=O)NCCC2(C)CC2)cc1-c1ccnc(-c2ccnc(NC(=O)C3CC3)c2)c1` [Example 118], the IC50 was more than 1 µM on A-Raf kinase, not above 0.1 µM on B-Raf (V600E) kinase, 1 to 10 µM with A375 cells and 0.5 to 1 µM in the experiment on H2405 cells.
As for `COC(=O)Nc1cc(-c2cc(-c3cc(NC(=O)N[C@H]4C[C@](C)(F)C4)cnc3C)cc(OCCO)n2)ccn1` [Example 157], the IC50 at A-Raf kinase is more than 1 µM; on B-Raf (V600E) kinase, not above 0.1 µM; in the experiment with A375 cells it was 1 to 10 µM; with H2405 cells, 1 to 10 µM.
Take `COC(=O)Nc1cc(-c2cc(-c3cc(NC(=O)NCCC(C)C)c(F)cc3C)cc(OCCO)n2)ccn1` [Example 115]: the IC50 at A-Raf kinase was more than 1 µM; at B-Raf (V600E) kinase it was not above 0.1 µM; in the experiment on A375 cells it was 0.1 to 0.5 µM; with H2405 cells, 0.5 to 1 µM.
For `Cc1cc(F)c(NC(=O)NCCC(C)C)cc1-c1cc(OCCO)nc(-c2ccnc(NC(=O)C3CC3)c2)c1` [Example 106], the IC50 on A-Raf kinase was more than 1 µM; on B-Raf (V600E) kinase, not above 0.1 µM; in the experiment on A375 cells, 0.1 to 0.5 µM; in the experiment on H2405 cells it was 0.1 to 0.5 µM.
In the case of `Cc1ncc(NC(=O)NCCC(C)(C)C)cc1-c1cc(-c2ccnc(NC(=O)C3CC3)c2)cnn1` [Example 120], the IC50 was more than 1 µM at A-Raf kinase, not above 0.1 µM on B-Raf (V600E) kinase, 1 to 10 µM in the experiment on A375 cells and 1 to 10 µM with H2405 cells.
As for `COC(=O)Nc1cc(-c2nccc(-c3cc(NC(=O)NCCC4(OC)CC4)c(F)cc3C)n2)ccn1` [Example 146], the IC50 was more than 1 µM at A-Raf kinase, not above 0.1 µM at B-Raf (V600E) kinase, 1 to 10 µM in the experiment with A375 cells and 1 to 10 µM in the experiment on H2405 cells.
`Cc1cc(F)c(NC(=O)NCCC(C)(C)F)cc1-c1ccnc(-c2ccnc(NC(=O)C3CC3)c2)n1` [Example 128]: the IC50 on A-Raf kinase is 0.1 to 0.5 µM; at B-Raf (V600E) kinase, not above 0.1 µM; in the experiment on A375 cells, 1 to 10 µM; with H2405 cells, 1 to 10 µM.
Regarding `COC(=O)Nc1cc(-c2nccc(-c3cc(NC(=O)NCCC4(OC)CC4)cnc3C)n2)ccn1` [Example 143], the IC50 on A-Raf kinase was more than 1 µM; at B-Raf (V600E) kinase, not above 0.1 µM; in the experiment on A375 cells it was 1 to 10 µM; in the experiment on H2405 cells it was 1 to 10 µM.
Regarding `COC(=O)Nc1cc(-c2nccc(-c3cc(NC(=O)NCCC(C)(C)OC)c(F)cc3C)n2)ccn1` [Example 129], the IC50 on A-Raf kinase was more than 1 µM; at B-Raf (V600E) kinase it was not above 0.1 µM; in the experiment on A375 cells, 1 to 10 µM; in the experiment on H2405 cells, 1 to 10 µM.
Regarding `COC(=O)Nc1cc(-c2cnnc(-c3cc(NC(=O)NCCC(C)(C)F)c(F)cc3C)c2)ccn1` [Example 141], the IC50 at A-Raf kinase was more than 1 µM; at B-Raf (V600E) kinase, not above 0.1 µM; with A375 cells, 1 to 10 µM; in the experiment on H2405 cells, 1 to 10 µM.

As usually defined, the IC50 is the concentration at which inhibition is half-maximal.
